Emax and EC50 data for 18 compounds are collected here from patent US9376420B2 (YUHAN CORPORATION, priority 2012, dated 2016).

The target of the test is T1, human LXRβ (Homo sapiens, UniProt P55055).
T1 construct: expressed in transfected cells; host or cells: HEK293 cells (ATCC CRL-1573), transient transfection with pFA-hLXRβ/GAL4 and pUAS
T1 sequence (P55055 222-460 limits assumed): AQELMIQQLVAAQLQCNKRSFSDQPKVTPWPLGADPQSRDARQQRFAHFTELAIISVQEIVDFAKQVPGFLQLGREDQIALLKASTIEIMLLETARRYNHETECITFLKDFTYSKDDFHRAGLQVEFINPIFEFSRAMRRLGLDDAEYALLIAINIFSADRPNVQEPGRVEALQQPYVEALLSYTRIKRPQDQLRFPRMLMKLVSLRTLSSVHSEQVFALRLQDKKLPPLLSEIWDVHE
The test can be described thus: Assay for Transcriptional Activity of LXRβ (GAL4-hLXRβ LBD luciferase reporter, transient transfection). Type of test: cell-based. As to conditions: HEK293 cells transfected with pFA-hLXRβ/GAL4 and pUAS, 24 hours; for Emax: fold value in comparison with the control (DMSO-treated group); for EC50: increase of transcriptional activity of LXRβ, average of three independent tests. An excerpt:
The ligand-binding domain (LBD) cDNA of human LXRβ was inserted into an expression vector (pFA, Stratagene, USA) site adjacent to the yeast GAL4 transcription factor DNA binding domain to prepare an expression construct (pFA-hLXRβ/GAL4) (Willey et al., Genes & Development 9 1033-1045 (1995). The GAL4-responsive luciferase reporter plasmid, i.e., pUAS (Stratagene, USA), contained five copies of the GAL4 response element placed adjacent to the promoter and the luciferase reporter gene. The pFA-hLXRβ/GAL4 and pUAS were introduced into mammalian cells through transient transfection, followed by measuring the transcriptional activity of LXRβ.
HEK293 cells (human kidney cells, sATCC, CRL-1573) were incubated at a T-75 flask containing a DMEM supplemented with 10% fetal bovine serum (FBS) in a 37° C., until they reach about 70˜80% confluency. The culture media containing the cells was added to each well of a 96-well plate in a density of 5×10^4 cells per well. The pFA-hLXRβ/GAL4 and pUAS was transfected to the cells using a cationic-lipid transfection reagent (Lipofectamine™, Invitrogen), through culturing at 37° C. for 3 hours for transient transfection according to the manufacturer's instruction. The test compounds were dissolved in dimethyl sulfoxide (DMSO) in the concentrations of 50, 30, 10, 3, 1, 0.3, 0.1, 0.03, and 0.01 μM and then cells were treated with the prepared compound-containing solution (100 μl). The cells were incubated at 37° C. for 24 hours. After removal of the medium from each well, the lysis buffer (25 mM Tricine pH7.8, 2 mM DTT, 2 mM EGTA, 10% glycerol, 1% Triton X-100) was added with the amount of 20 μl per each well, and the plate was stirred at room temperature for 15 minutes. The luciferase reagent (prepared by adding 10 ml of the luciferase buffer (Promega) to 1 vial of the luciferase substrate (Promega)) was added to each well with the amount of 100 μl per well, followed by assaying with a luminometer according to the manufacturer's instruction.
The dose-response curve for calculating the EC50 values of the test compounds on the increase of transcriptional activity of LXRβ was prepared using the known LXR agonist (i.e., N-(2,2,2-trifluoro-ethyl)-N-[4-(2,2,2-trifluoro-1-hydroxy-1-trifluoromethyl-ethyl)-phenyl]-benzenesulfonamide) as a positive control and the vehicle (DMSO) as a negative control. The dose-response curve was produced from the 9-point curve having different concentrations at a 1/2 log unit. The EC50 value of a test compound, which is defined as a concentration for initiating the reaction corresponding to the half value between the Top value (i.e., the maximum value) and the Bottom value (baseline), was calculated according to the following equation. Y=Bottom+(Top-Bottom)/(1+10^((log EC50-X)*Hill Slope)).
In the above equation, Y is the observed value; X is the log concentration; Hill Slope is the slope of the curve; and Top and Bottom are the maximum value of test compound and the baseline value, respectively.
The following tables 1 and 2 show the EC50 values of the test compounds measured as in the above. In the tables 1 and 2, each EC50 value represents an average value obtained from three independent tests.
A general note: Reporter assays use an easily measured gene product as a stand-in for the process of interest.

As a reminder, the EC50 is the concentration giving half of the maximal effect. High values mean a need for much substance, low ones an effect from little substance. As to `CC(C)(C)OC(=O)N1CC=C(c2ccc(C3CC(C(O)(C(F)(F)F)C(F)(F)F)=NN3c3ccccc3Cl)c(F)c2)CC1` (stereo not drawn) [Example 342, 1-(2-chloro-phenyl)-5-[2-fluoro-4-(1-BOC-1,2,3,6-tetrahydropyridin-4-yl)-phenyl]-3-[di-(trifluoromethyl)-hydroxy-methyl]-4,5-dihydro-1H-pyrazole], the Emax is 21 fold and it took 4070 nM to reach a half-maximal effect (EC50).

Turning to `CN(C)S(=O)(=O)N1CC=C(c2ccc(C3CC(C(O)(C(F)(F)F)C(F)(F)F)=NN3c3ccc(F)cc3F)cc2)CC1` (stereo not drawn) [Example 401, 1-(2,4-difluoro-phenyl)-5-[4-(1-dimethylsulfamoyl-1,2,3,6-tetrahydropyridin-4-yl)-phenyl]-3-[di-(trifluoromethyl)-hydroxy-methyl]-4,5-dihydro-1H-pyrazole], the Emax is 45 fold and the response was half-maximal at 785 nM (EC50).

In the case of `COC(=O)c1cncc(-c2ccc(C3CC(C(O)(C(F)(F)F)C(F)(F)F)=NN3c3ccccc3Cl)cc2)c1` (stereo not drawn) [Example 273, 1-(2-chloro-phenyl)-5-[4-(5-methoxycarbonyl-pyridin-3-yl)-phenyl]-3-[di-(trifluoromethyl)-hydroxy-methyl]-4,5-dihydro-1H-pyrazole], the Emax amounted to 45 fold and a half-maximal response (EC50) required 1150 nM.

For the compound `O=S(=O)(C1CC1)N1CCCN(c2ccc(C3CC(C(O)(C(F)(F)F)C(F)(F)F)=NN3c3ccccc3Cl)cc2)CC1` (stereo not drawn) [Example 325, 1-(2-chloro-phenyl)-5-[4-(4-cyclopropanesulfonyl-homopiperazin-1-yl)-phenyl]-3-[di-(trifluoromethyl)-hydroxy-methyl]-4,5-dihydro-1H-pyrazole], the Emax is 53 fold and the EC50 came out at 800 nM.

The compound `CS(=O)(=O)c1cccc(-c2ccnc(C3CC(C(F)(F)C(F)(F)F)=NN3c3ccc(F)cc3F)c2)c1` (stereo not drawn) [Example 177, 1-(2,4-difluoro-phenyl)-5-[4-(3-methanesulfonyl-phenyl)-pyridin-2-yl]-3-pentafluoroethyl-4,5-dihydro-1H-pyrazole] yielded an Emax of 57 fold and an EC50 of 26 nM.

On to `CN(CCCS(=O)(=O)c1cccc(-c2ccc(C3CC(C(O)(C(F)(F)F)C(F)(F)F)=NN3c3ccccc3Cl)cc2)c1)C(=O)OC(C)(C)C` (stereo not drawn) [Example 285, 5-{3′-[3-(N-BOC-N-methyl-amino)-propane-1-sulfonyl]-biphenyl-4-yl}-1-(2-chloro-phenyl)-3-[di-(trifluoromethyl)-hydroxy-methyl]-4,5-dihydro-1H-pyrazole], for which the Emax was determined as 73 fold and a half-maximal response (EC50) required 62 nM.

Compound `CS(=O)(=O)N1CCCN(c2ccc(C3CC(C(O)(C(F)(F)F)C(F)(F)F)=NN3c3ccccc3Cl)cc2)CC1` (stereo not drawn) [Example 322, 1-(2-chloro-phenyl)-5-[4-(4-methanesulfonyl-homopiperazin-1-yl)-phenyl]-3-[di-(trifluoromethyl)-hydroxy-methyl]-4,5-dihydro-1H-pyrazole] yielded an Emax of 64 fold and an EC50 of 778 nM.

With `CS(=O)(=O)c1cc(-c2cccc(C3CC(C(F)(F)C(F)(F)F)=NN3c3ccc(F)cc3F)c2)cc(F)c1CO` (stereo not drawn) [Example 76, 1-(2,4-difluoro-phenyl)-5-[3′-fluoro-4′-(hydroxymethyl)-5′-(methylsulfonyl)-biphenyl-3-yl]-3-pentafluoroethyl-4,5-dihydro-1H-pyrazole], the Emax is reported as 84 fold and the EC50 was 189 nM.

On to `O=S(=O)(N1CCCC1)N1CCN(c2ccc(C3CC(C(O)(C(F)(F)F)C(F)(F)F)=NN3c3ccccc3Cl)cc2)CC1` (stereo not drawn) [Example 319, 1-(2-chloro-phenyl)-5-{4-[4-(pyrrolidine-1-sulfonyl)-piperazin-1-yl]-phenyl}-3-[di-(trifluoromethyl)-hydroxy-methyl]-4,5-dihydro-1H-pyrazole], for which the Emax is 39 fold and the EC50 amounted to 1830 nM.

In the case of `CN(C)S(=O)(=O)c1cccc(-c2ccc(C3CC(C(O)(C(F)(F)F)C(F)(F)F)=NN3c3ccccc3Cl)cc2)c1` (stereo not drawn) [Example 284, 1-(2-chloro-phenyl)-5-(3′-dimethylsulfamoyl-biphenyl-4-yl)-3-[di-(trifluoromethyl)-hydroxy-methyl]-4,5-dihydro-1H-pyrazole], the Emax came to 56 fold and the EC50 turned out to be 635 nM.

For the compound `CC(C)(C)OC(=O)N1CC=C(c2cccc(C3CC(C(F)(F)C(F)(F)F)=NN3c3ccc(F)cc3F)c2)CC1` (stereo not drawn) [Example 60, 5-[3-(1-BOC-1,2,3,6-tetrahydropyridin-4-yl)-phenyl]-1-(2,4-difluoro-phenyl)-3-pentafluoroethyl-4,5-dihydro-1H-pyrazole], the Emax was found to be 11 fold and the midpoint of the response, the EC50, lay at 20100 nM.

Turning to `O=S(=O)(C1CCCCC1)N1CC=C(c2ccc(C3CC(C(O)(C(F)(F)F)C(F)(F)F)=NN3c3ccccc3Cl)cc2)CC1` (stereo not drawn) [Example 307, 1-(2-chloro-phenyl)-5-[4-(1-cyclohexanesulfonyl-1,2,3,6-tetrahydropyridin-4-yl)-phenyl]-3-[di-(trifluoromethyl)-hydroxy-methyl]-4,5-dihydro-1H-pyrazole], the Emax is on record as 52 fold and the EC50 was 5470 nM.

With `CC(O)c1ccc(-c2cccc(C3CC(C(F)(F)C(F)(F)F)=NN3c3ccccc3Cl)c2)cc1` (stereo not drawn) [Example 108, 1-(2-chloro-phenyl)-5-[4′-(1-hydroxy-ethyl)-biphenyl-3-yl]-3-pentafluoroethyl-4,5-dihydro-1H-pyrazole], the Emax was 44 fold and the EC50 came out at 993 nM.

Take `CC(C)(O)C(=O)N1CCN(c2ccc(C3CC(C(O)(C(F)(F)F)C(F)(F)F)=NN3c3ccccc3Cl)cc2)CC1` (stereo not drawn) [Example 320, 1-(2-chloro-phenyl)-5-{4-[4-(2-hydroxy-2-methyl-propionyl)-piperazin-1-yl]-phenyl}-3-(di-(trifluoromethyl)-hydroxy-methyl]-4,5-dihydro-1H-pyrazole]: the Emax was found to be 17 fold and a half-maximal effect (EC50) was put at 1660 nM.

Consider `CS(=O)(=O)c1ccc(-c2ccnc(C3CC(C(F)(F)C(F)(F)F)=NN3c3ccc(F)cc3F)c2)cn1` (stereo not drawn) [Example 178, 1-(2,4-difluoro-phenyl)-5-[4-(6-methanesulfonyl-pyridin-3-yl)-pyridin-2-yl]-3-pentafluoroethyl-4,5-dihydro-1H-pyrazole], for which the Emax amounted to 82 fold and the response was half-maximal at 543 nM (EC50).

Turning to `CN(C)S(=O)(=O)c1cccc(-c2cccc(C3CC(C(F)(F)C(F)(F)F)=NN3c3ccc(F)cc3F)c2)c1` (stereo not drawn) [Example 87, 1-(2,4-difluoro-phenyl)-5-(3′-dimethylsulfamoyl-biphenyl-3-yl)-3-pentafluoroethyl-4,5-dihydro-1H-pyrazole], the Emax was found to be 46 fold and the EC50 came out at 91 nM.

Regarding `OC(C1=NN(c2ccc(F)cc2F)C(c2ccc(-c3ccccn3)cc2)C1)(C(F)(F)F)C(F)(F)F` (stereo not drawn) [Example 385, 1-(2,4-difluoro-phenyl)-5-[4-pyridin-2-yl-phenyl]-3-[di-(trifluoromethyl)-hydroxy-methyl]-4,5-dihydro-1H-pyrazole], the Emax amounted to 60 fold and the EC50 turned out to be 771 nM.

On to `CC(=O)N1CC=C(c2cccc(C3CC(C(O)(C(F)(F)F)C(F)(F)F)=NN3c3ccccc3Cl)c2)CC1` (stereo not drawn) [Example 231, 5-[3-(1-acetyl-1,2,3,6-tetrahydropyridin-4-yl)-phenyl]-1-(2-chloro-phenyl)-3-[di-(trifluoromethyl)-hydroxy-methyl]-4,5-dihydro-1H-pyrazole], for which the Emax came out at 107 fold and the EC50 amounted to 8 nM.
